Experimental data: paper PMC11540889, “In Vitro Cytotoxicity of Fluorinated Quaternary Ammonium Salts in Colorectal Cancer Cells and In Silico Pharmacology” (Advances in Pharmacological and Pharmaceutical Sciences, 2024)
Read-outs that look alike come from different tables or passages of the source.

Tests used:
[1] = test system: SW948 (Dukes' Type C, Grade III, premetastatic colorectal adenocarcinoma); assay: MTT cytotoxicity, SW948 cells; details: for CC50: Homo sapiens, SW948, 48 h, SW948 cells, MTT, 48 h, mean ± SD; for Index of selectivity MCRT / SW948: IS = CC50 MCRT ÷ CC50 SW948; for Index of selectivity PBMC / SW948: IS = CC50 PBMC ÷ CC50 SW948
Description: (§1) The compounds were solubilized in dimethyl sulfoxide (DMSO, Fischer Chemical, NJ, USA) at 50,000 μg/mL and stored at −20°C until use. From the stock solution, six serial 1:2 double dilutions of each compound were prepared to start with concentrations of 100, 50, 25, 12.5, 6.25, and 3.125 μg/mL, respectively. 5-FU, one of the conventional drugs to treat CRC [34], was used as an antitumor compound control at concentrations ranging between 800 and 0.625 μM.
(§2) SW948 (Dukes' Type C, Grade III, premetastatic colorectal adenocarcinoma—CCL-237), SW48 (Dukes' Type C, Grade IV, noninvasive colorectal adenocarcinoma—CCL231), and SW620 (Dukes' Type C, Grade IV invasive colorectal adenocarcinoma—CCL227) (American Type Culture Collection Manassas, VA, USA) were maintained in standard conditions at 37°C, without a CO2 atmosphere. PBMCs and MCRT were used as nontumoral control cells. PBMCs were obtained by healthy donors, separated using Histopaque-1077 (Sigma-Aldrich) and cultured in RPMI-1640 medium (Sigma-Aldrich) supplemented with 10% SFB and 1% penicillin/streptomycin [46]. In turn, MCRT were obtained from healthy BALB/c mice; for this, mice were euthanized with CO2 after previous sedation, the colorectal tissue removed, cleaned up, and cut into 2 × 2 mm pieces, suspended in supplemented DMEM, and used immediately after collection. […] Moreover, the inclusion of PBMC also served to assess the systemic toxicity of FQAS.
(§3) The cytotoxic activity of synthesized FQASs and QASs was studied by measuring cell viability/mortality, determined with the MTT (3-(4,5-dimethylthiazol-2-yl)-2,5-diphenyl tetrazole bromide) method (VWR Chemicals and Reagents Avantor), upon exposure of each cell line to six serial dilutions of the different compounds independently. Unexposed cells were included as viability controls, and cells exposed to 5-FU were included as cytotoxicity controls. Briefly, cells were adjusted to 200,000 cells/mL in the corresponding supplemented culture medium, and 100 μL (20,000 cells/well) were dispensed into each 96-well cell culture plate (Nunc, Thermo Fisher Scientific). Twelve hours after seeding the monolayer, 100 μL dilution of each compound was added to each well; the plates containing CRC were incubated at 37°C in the absence of CO2, while plates with PBMCs and MCRT were incubated at 37°C and 5% CO2 atmosphere. For MCRT, each piece was placed into each well of a 96-well plate and exposed to each dilution of the FQASs and QASs. After 48 h of incubation, 30 μL/well of MTT (5 mg/mL) was added, and plates were left at 37°C for 3 h, protected from light. After this time, 100 μL/well of DMSO was added to solubilize the formazan crystals formed. Plates were read at 570 nm on a Varioskan plate reader (Thermo Fisher), and nonspecific absorbance was corrected by subtracting the optical densities (OD) of the blank solutions corresponding to the supplemented culture media (RPMI 1640, DMEM, or L-15 media) and 0.5% DMSO. Each concentration of the FQASs, QASs, and controls was evaluated in duplicate in three independent experiments.
(§4) The percentages of viability (equation (1)) and mortality (equation (2)) were calculated with the net OD:(1) % viability=OD treated cell÷nontreated cells×100, (2) % mortality=100−% viability.
(§5) The %mortality data for each compound concentration was recorded, and the median cytotoxic concentration (CC50), corresponding to the concentration at which 50% of cell death occurs, was calculated using GraphPad Prism 8 software (GraphPad, Software, Inc., La Jolla, CA, USA). […] Lastly, the index of selectivity (IS) was calculated by dividing the CC50 value obtained for control cells (MCRT and PBMCs) by the CC50 value obtained for each CRC cell phenotype using the formula: IS = CC50 (MCRT or PBMC) ÷ CC50 (SW948, SW48 or SW620).

[2] = test system: SW48 (Dukes' Type C, Grade IV, noninvasive colorectal adenocarcinoma); assay: MTT cytotoxicity, SW48 cells; details: for CC50: SW48 cells, MTT, 48 h, mean ± SD; for Index of selectivity MCRT / SW48: IS = CC50 MCRT ÷ CC50 SW48; for Index of selectivity PBMC / SW48: IS = CC50 PBMC ÷ CC50 SW48
Description: as §1, §2, §3, §4, §5

[3] = test system: SW620 (Dukes' Type C, Grade IV invasive colorectal adenocarcinoma); assay: MTT cytotoxicity, SW620 cells; details: for CC50: Homo sapiens; for Index of selectivity MCRT / SW620: IS = CC50 MCRT ÷ CC50 SW620; for Index of selectivity PBMC / SW620: IS = CC50 PBMC ÷ CC50 SW620
Description: as §1, §2, §3, §4, §5

[4] = Ex vivo MTT cytotoxicity, healthy murine colorectal tissue; type: cell-based, BALB/c mice; details: BALB/c, mouse, healthy murine colorectal tissue (MCRT) pieces, ex vivo, nontumoral control, MTT, 48 h, mean ± SD
Description: as §1, §2, §3, §4, §5

[5] = MTT cytotoxicity, peripheral blood mononuclear cells; type: cell-based; details: human, peripheral blood mononuclear cells (PBMC); PBMC, nontumoral control, MTT, 48 h, mean ± SD
Description: as §1, §2, §3, §4, §5

[6] = test system: CRC cell lines SW48, SW620, and SW948; assay: MTT cytotoxicity across CRC cell lines (pooled statements, selectivity between lines); type: cell-based; details: for Index of selectivity SW48 vs. SW620: IS = CC50 SW48 ÷ CC50 SW620; for Index of selectivity SW948 vs. SW48: IS = CC50 SW948 ÷ CC50 SW48; for Index of selectivity SW948 vs. SW620: IS = CC50 SW948 ÷ CC50 SW620
Description: as §1, §2, §3, §4
The %mortality data for each compound concentration was recorded, and the median cytotoxic concentration (CC50), corresponding to the concentration at which 50% of cell death occurs, was calculated using GraphPad Prism 8 software (GraphPad, Software, Inc., La Jolla, CA, USA). […]

| Structure (SMILES) | CC50 [1] [µM] | Index of selectivity MCRT / SW948 [1] | Index of selectivity PBMC / SW948 [1] | CC50 ([2]; Homo sapiens, SW48, 48 h) [µM] | Index of selectivity MCRT / SW48 [2] | Index of selectivity PBMC / SW48 [2] | CC50 ([3]; SW-620, read-out: LC50 (Figure 2c)) [µM] | Index of selectivity MCRT / SW620 [3] | Index of selectivity PBMC / SW620 [3] | CC50 at 48 h [4] [µM] | CC50 at 48 h [5] [µM] | Index of selectivity SW48 vs. SW620 [6] | Index of selectivity SW948 vs. SW48 [6] | Index of selectivity SW948 vs. SW620 [6] | CC50 [2] [µM] | CC50 ([3]; 48 h) [µM] | cytotoxicity level (high/moderate/low) [1] | cytotoxicity level (high/moderate/low) [2] | cytotoxicity level (high/moderate/low) [3] | CC50 ([3]; SW-620) [µM] |
| --- | --- | --- | --- | --- | --- | --- | --- | --- | --- | --- | --- | --- | --- | --- | --- | --- | --- | --- | --- | --- |
| C[N+](C)(CI)CCCC=C(c1ccc(F)cc1)c1ccc(F)cc1 [Compound 2] | 77.9 ± 9.1 | 2.6 | 0.5 | 75.7 ± 14.2 | 2.7 | 0.47 | 28.1 | 7.3 | 1.3 | 205 ± 14.5 | 35.6 ± 6.6 | 2.7 | 1.0 | 2.8 | – | – | – | – | – | – |
| C[N+](C)(C)CCCCC=C(c1ccc(C(F)(F)F)cc1)c1ccc(C(F)(F)F)cc1 [Compound 14] | 49 ± 11.1 | 8.6 | 1.9 | 16.3 | 22.7 | 5.0 | – | 28.9 | 6.4 | 419 ± 15 | 93.2 ± 13.1 | 1.3 | 2.6 | 3.4 | 18.5 ± 3.6 | 14.5 ± 2.9 | – | – | – | – |
| C[N+](C)(CI)CCCC=C(c1cccc(C(F)(F)F)c1)c1cccc(C(F)(F)F)c1 [Compound 6] | 45.6 ± 3.6 | 2.8 | 1.0 | 55.5 ± 6.4 | 2.3 | 0.80 | – | 3.3 | 1.2 | 129 ± 11.3 | 44.8 ± 6.4 | 1.4 | – | – | – | 38.8 ± 2.1 | – | – | – | – |
| C[N+](C)(CCl)CCCC=C(c1ccc(C(F)(F)F)cc1)c1ccc(C(F)(F)F)cc1 [Compound 8] | 20.4 ± 6.2 | 5.0 | 2.1 | 50.8 ± 4 | 2.0 | 0.8 | – | 5.3 | 2.2 | 102 ± 5 | 42.3 ± 9.3 | 2.6 | 0.4 | 1.1 | – | 19.2 ± 3.5 | – | – | – | – |
| C[N+](C)(CI)CCCC=C(c1ccc(C(F)(F)F)cc1)c1ccc(C(F)(F)F)cc1 [Compound 9] | 20 ± 4.7 | 10.3 | 1.5 | 40.2 ± 6 | 5.1 | 0.8 | – | 6.4 | 1.0 | 206 ± 19.4 | 30.6 ± 2.1 | 1.2 | 0.5 | 0.6 | – | 32.2 ± 1 | – | – | – | – |
| O=c1[nH]cc(F)c(=O)[nH]1 [Compound 5-FU, 5-fluorouracil, reference compound] | 30.3 ± 5.2 | 31.2 | 1.3 | 30.3 | 33.9 | 1.4 | – | 31.2 | 1.3 | 945 ± 43.7 | 38.7 ± 7 | 0.9 | 1.1 | 1.0 | – | 30.3 ± 6 | High | High | High | 27.9 |
| C[N+](C)(CI)CCCCC=C(c1cccc(C(F)(F)F)c1)c1cccc(C(F)(F)F)c1 [Compound 11] | 21.5 ± 4.5 | 4.4 | 1.6 | 22.1 ± 4 | 4.2 | 1.5 | – | 5.2 | 1.9 | 93.5 ± 13.9 | 33.4 ± 2 | 1.2 | 1.0 | 1.2 | – | 18.1 ± 3.7 | – | – | – | – |
| C[N+](C)(C)CCCC=C(c1cccc(C(F)(F)F)c1)c1cccc(C(F)(F)F)c1 [Compound 7] | 20 ± 0.8 | 6.2 | 2.3 | 81.4 ± 9.4 | 1.5 | 0.57 | – | 4.0 | 1.5 | 123 ± 9.2 | 46.3 ± 7.5 | 2.6 | 0.2 | – | – | 31.1 ± 0.2 | – | – | – | – |
